Here are results for 1 compound from US20250170252A1, “QUINONE PROTECTED FORMS AND CONJUGATES” (CAMBRIDGE ENTERPRISE LIMITED, priority 2022, published 2025).

Holding throughout (assay type): cell-based
For one data set, the system named is ovine blood. As to the kind of experiment: Methaemoglobin analysis in sheep's blood. As to conditions: after 1 h of incubation. The protocol: Defibrinated Oxoid™ sheep's blood (ThermoScientific) was diluted to a 5% v/v suspension in PBS pH 7.4. In a 96 well microtiter plate, 150 μL of blood suspension was added to 50 μL of serially diluted compound in PBS containing a 4× stock of each compound of interest. Serial dilution of compounds from DMSO stocks into PBS was performed to achieve an in-plate DMSO concentration of 0.1%. PBS buffer alone was used as a negative control. Three replicates were performed for each compound concentration analysed. The plate was incubated for the specified time at 37° C. The plate was then centrifuged at 3,500 rpm for 5 min. The supernatant was removed and cells lysed by resuspension in 100 μL of a solution of Triton-X-100 (1%) in PBS. Following this 80 μL of lysed cell contents were transferred to a second microtiter plate for UV measurement. To determine methaemoglobin increase, UV absorbance was measured immediately at 630 nm (MiniMax i3x Imager, Molecular Devices). Methaemoglobin increase was determined by (A630−A^0630)/(A^0630)×100, where A630 is the absorbance of the test well at 630 nm, and A^0630 is the absorbance of the negative control at 630 nm. Mean values and standard error of the mean of three independent replicates are plotted.

Data set [1] relates to SKBR3 (breast cancer cell line). In words: Viability assay (CellTiter-Blue), SKBR3. The conditions noted are these: Homo sapiens, SK-BR-3. The protocol:
(§1) Assays assessing cytotoxicity of β-lapachone and derivatives were performed by CellTiter-Blue assay (Promega) according to the manufacturer's instructions. Briefly, adherent cancer-cell lines were plated at 20,000 cells/well in 96 well plates or suspension cell lines were plated at a concentration of 2×10^5 cells/mL in 24 well plates. Compound stocks in media were made by dilution of DMSO stocks containing the compound of interest to obtain a final in-plate DMSO concentration of only 0.1%. Incubation was performed for 48 h. Following incubation, media was replaced with media containing CellTiter-Blue (Promega) in 1:10 dilution and the plates were incubated for 1.5-4 h. The fluorescence of the plates was recorded (excitation 555 nm, emission 585 nm, […] Reader, Molecular Devices). Cell viability was calculated by division of the fluorescence intensity of treated wells by that of the calculated average fluorescence intensity of replicate negative control wells containing cells with 0.1% DMSO only. Values and reported error bars represent the mean and standard error of the mean of three triplicate repeats for each concentration tested.

Data set [2] relates to MCF-7 (breast cancer cell line). As to the kind of experiment: Viability assay (CellTiter-Blue), MCF-7. As to conditions: Homo sapiens, MCF7. For orientation: The colour change of resazurin is a common sign of viable cells or microbes.
Data set [3] deals with HeLa (cervical cancer cell line). As to the kind of experiment: Viability assay (CellTiter-Blue), HeLa. The conditions noted are these: Homo sapiens. As to the method:
as §1

The test system of the next data set is HeLa. In words: Toxicity with/without β-glucuronidase, HeLa. As to conditions: Homo sapiens, read-out: IC50 β-lapachone, 1. The protocol: (§2) Assays assessing cytotoxicity of β-lapachone and derivatives were performed by CellTiter-Blue assay (Promega) according to the manufacturer's instructions. Briefly, adherent cancer-cell lines were plated at 20,000 cells/well in 96 well plates or suspension cell lines were plated at a concentration of 2×10^5 cells/mL in 24 well plates. Compound stocks in media were made by dilution of DMSO stocks containing the compound of interest to obtain a final in-plate DMSO concentration of only 0.1%. Incubation was performed for 48 h. Following incubation, media was replaced with media containing CellTiter-Blue (Promega) in 1:10 dilution and the plates were incubated for 1.5-4 h. The fluorescence of the plates was recorded (excitation 555 nm, emission 585 nm, MiniMax i3x Reader, Molecular Devices).
(§3) Cell viability was calculated by division of the fluorescence intensity of treated wells by that of the calculated average fluorescence intensity of replicate negative control wells containing cells with 0.1% DMSO only. Values and reported error bars represent the mean and standard error of the mean of three triplicate repeats for each concentration tested. IC50 values were calculated using GraphPad Prism 8 software.
(§4) The potential of compound 37a, glucuronide-PHB-BL, as a prodrug was investigated. As discussed above, at physiological pH the compound has a relatively slow-release rate. Toxicity of Gluc-PHB-BL 37a was tested against a range of cell lines with and without added β-glucuronidase. Addition of the enzyme mimics conditions of the solid tumour environment.

For a further data set, the system named is HEK-293T. As to the kind of experiment: Toxicity with/without β-glucuronidase, HEK-293T. As to conditions: Homo sapiens, read-out: IC50 β-lapachone, 1. As to the method:
as §2, §3, §4

The subject of data set [4] is Panc-1 pancreatic cancer cell line. As to the kind of experiment: CellTiter Glo viability assay, Panc-1. As to conditions: Homo sapiens; Panc-1, β-lapachone alone, 48 hours; read-out: IC50. The protocol:
(§5) For CellTiter Glo viability assays, 10,000 cells per well were plated on Day 1 and were allowed to adhere to the plate surface for 24 hours. Optimized concentration ranges of prodrugs were determined and made via serial dilution. […] Cells were incubated with compound for 48 hours and viability was assessed on Day 4 using the CellTiter Glo Viability assay which measures metabolically active cells by quantifying the amount of ATP present.
(§6) Panc-1 cells were obtained from Tony Kouzarides' lab in the Gurdon Institute at the University of Cambridge and put into culture at passage 10 containing DMEM media (Gibco) supplemented with 1% Pen-Strep antibiotic (Gibco), 1% L-glutamine, and 10% fetal bovine serum (FBS, sterile-filtered). Aspc-1 cells were bought commercially from the American Type Culture Collection (ATCC) and put into culture containing RPMI 1640 media (Gibco) supplemented with 1% Pen-Strep antibiotic (Gibco), 1% L-glutamine, and 20% fetal bovine serum (FBS, sterile-filtered). All cell lines were started at passage 10 and passaged every 3 days by centrifuging at 1000 rpm for 4 minutes.
For orientation: ATP-based viability assays read luminescence as a measure of living cells.

Data set [5] deals with Aspc-1 pancreatic cancer cell line. As to the kind of experiment: CellTiter Glo viability assay, Aspc-1. As to conditions: Homo sapiens, ASPC1; Aspc-1, β-lapachone alone, 48 hours; read-out: IC50. The protocol:
as §5, §6

A word on the IC50: it is the concentration that inhibits the measured activity by half. As for `CC1(C)CCC2=C(O1)c1ccccc1C(=O)C2=O` [Compound 1, β-lapachone, reference compound], in the data set on ovine blood, the “lowest dose concentration at which methaemoglobin formation is detectable” value was found to be 10 µM. Further, the IC50 was determined as 2800 nM in data set [1]; 1900 nM in data set [2]; 4200 nM in data set [3]; 4260 nM with HeLa; 2910 nM with HEK-293T; 2040 nM in data set [4]. The IC50 in data set [5] came to 7660 nM.
